Laboratory results from patent publication US9046516B2, “Immunoassay method, reagent kit for detecting alkaline phosphatase, and reagent kit for immunoassay” (SYSMEX CORPORATION, priority 2007, dated 2015).

Test system: endogenous ALP
Experiment: HBs antigen immunoassay with ALP label: luminescence intensity of samples, reduction of the influence of endogenous ALP
Format: biochemical
Conditions: particle dispersion with 2 mM levamisole
Protocol: In this example, the effect of the inhibitor of endogenous ALP contained in the particle dispersion prepared in (4) above on reduction of the influence of endogenous ALP was examined.
Specifically, the reagents prepared in (1) to (5) above were used and the luminescence intensities of HBs antigen-negative samples were measured. The measurement method is described below.
First, 25 μL sample was mixed with 30 μL of the HBs antibody reagent and then incubated at 42° C. for about 3 minutes, whereby an HBs antigen in the sample was reacted with the biotinylated HBs antibody in the HBs antibody reagent. Subsequently, 30 μL of the magnetic particle reagent was added to the mixture and then incubated for about 2 minutes, and a complex consisting of the HBs antigen and the biotinylated HBs antibody was immobilized on the ST magnetic particles. […] 50 μL of the particle dispersion was added to the ST magnetic particles from which the wash fluid had been removed, then the ST magnetic particles were dispersed in the particle dispersion, 100 μL of the substrate solution was added thereto, and the luminescence intensity of the sample was measured with LUMI-COUNTER 700 (Microtec Nichion). […]

## c1ccc([C@H]2CN3CCSC3=N2)cc1 [Levamisole, (−)-2,3,5,6-tetrahydro-6-phenylimidazo[1,2-b]thiazole]
Negative control NC (0.1 M TEA buffer solution containing 5% BSA, pH 7.0)
  With Levamisole (Luminescence Intensity, Counts): 705 Counts
Positive control PC (HBs antigen-positive serum)
  With Levamisole (Luminescence Intensity, Counts): 258759 Counts
